# Reference: paper PMC7569882, “A Probeless Capacitive Biosensor for Direct Detection of Amyloid Beta 1-42 in Human Serum Based on an Interdigitated Chain-Shaped Electrode” (Micromachines, 2020)
# B1: CRP: C-reactive protein, interferent in selectivity test (protein, UniProt P02741 19-224, looked up)
# C-reactive protein: QTDMSRKAFVFPKESDTSYVSLKAPLTKPLKAFTVCLHFYTELSSTRGYSIFSYATKRQDNEILIFWSKDIGYSFTVGGSEILFEVPEVTVAPVHICTSWESASGIVEFWVDGKPRVRKSLKKGYTVGAEASIILGQEQDSFGGNFEGSQSLVGDIGNVNMWDFVLSPDEINTIYLGGPFSPNVLNWRALKYEVQGEVFTKPQLWP
# Test system: anti-aβ/SAM/ICE biosensor (anti-aβ antibody MOAB-2)
# Experiment: Selectivity of biosensor: change in capacitance ΔC with different analytes
# Type: binding
# Conditions: 1 Hz, in HS; TNF-α 0.5 ng mL^−1, insulin 10^3 ng mL^−1, CRP 10^5 ng mL^−1; n = 3
# Method: Electrical impedance spectroscopy (EIS) (EC-Lab, Sp-200, Bio-Logic Science Instruments, Seyssinet-Pariset, France) was used for the recording of impedance and capacitance of the biosensor in PBS (pH 7.4). The EIS output signal is measured by applying an input voltage of 10 mV in a frequency range from 100 mHz–100 Hz, to the working and reference electrode. To explore the clinical application, the capacitive anti-aβ/SAM/ICE biosensor was employed for the direct detection of aβ 1-42 peptide in HS. Firstly, the pure HS was diluted in 1× PBS buffer at the ratio (1:1000), to avoid matrix effects in the measurement. Next, 1 μg mL^−1 of aβ 1-42 in pure HS was made, and then differential concentrations of aβ from 10^−3 to 10^3 ng mL^−1 were diluted using HS (1:1000). Various concentrations of aβ (10^−3–10^3 ng mL^−1) were incubated in the HS (1:1000) with the biosensor for 20 min, and the capacitance was measured. To verify the selectivity of the anti-aβ/SAM/ICE biosensor, the effects of tumor necrosis factor-alpha (TNF-α, 0.5 ng mL^−1), insulin (10^3 ng mL^−1), and C-reactive protein (CRP, 10^5 ng mL^−1) in HS were characterized using the change in capacitance ΔC value at 1 Hz frequency (Figure 7a). […] Moreover, the fabricated aβ/SAM/ICE biosensors were kept in the refrigerator at 4 °C for storage. Then, the capacitance of the biosensor at 1 Hz was recorded in PBS at 24 °C of room temperature, on the 1st, 2nd, 3rd, 7th, and 14th day after taking it out to check the stability of the biosensor, as shown in Figure 7b.
Molecule,interference with aβ detection,ΔC response (change in capacitance)
TNF-α,no significant interference,did not change much compared to the ΔC response for aβ
"insulin: insulin, interferent in selectivity test",no significant interference,did not change much compared to the ΔC response for aβ
B1,no significant interference,did not change much compared to the ΔC response for aβ

# Molecular target: aβ 1-42 peptide
# Experiment: not given
# Conditions: Fluorescent; ref [43]; cited from earlier work
# Excerpt: Table 2 Dissociation constants Kd of the interaction between aβ 1-42 peptide and various binding partners. | column: Kd (nM)
row,Molecule,Kd [nM]
1,"CN(C)c1ccc(/C=C/C2=CC(/C=C/c3ccc(N(C)C)cc3)=[O+][B-](F)(F)O2)cc1 [CRANAD-2, (T-4)-((1E,6E)-1,7-bis(4-(dimethylamino)phenyl)-1,6-heptadiene-3,5-dionato-kO^3,kO^5)difluoro-boron]",38.7
2,CN(C)c1ccc(/C=C/C=C/C=C(C#N)C#N)cc1 [DANIR-2c],26.9
3,"N#CC(C#N)=Cc1ccc(-c2ccc(-c3ccc(O)cc3)s2)s1 [NIAD-4, {(50-(p-Hydroxyphenyl)-2,20-bithienyl-5-yl)-methylidene}-propanedinitrile]",10
